Data taken from ChEMBL document CHEMBL3885881, “DrugMatrix”.

Species: Rattus norvegicus
Assay: DrugMatrix - Regimen: Daily Repeat
Format: toxicity, organism-based, Sprague-Dawley
Parameters: regimen Daily Repeat, gender Male, age 6-8 weeks
Settings: in vivo, po, route oral GAVAGE, […]; for ABSOLUTE BASOPHIL / ABSOLUTE EOSINOPHIL / ABSOLUTE LYMPHOCYTE / ABSOLUTE MONOCYTE / ABSOLUTE SEGMENTED NEUTROPHIL / BASOPHIL / EOSINOPHIL / ERYTHROCYTE COUNT / HEMATOCRIT / HEMOGLOBIN / LEUKOCYTE COUNT / LYMPHOCYTE / MEAN CORPUSCULAR HEMOGLOBIN / MEAN CORPUSCULAR HEMOGLOBIN CONCENTRATION / MEAN CORPUSCULAR VOLUME / MONOCYTE / NEUTROPHIL / NUCLEATED RED BLOOD CELLS / PLATELET COUNT: tissue Blood; for ALANINE AMINOTRANSFERASE / ALBUMIN / ALKALINE PHOSPHATASE / ASPARTATE AMINOTRANSFERASE / BLOOD UREA NITROGEN / CARBON DIOXIDE / CHLORIDE / CHOLESTEROL / CREATINE PHOSPHOKINASE / CREATININE / GLUCOSE / LACTATE DEHYDROGENASE / LIPASE / PHOSPHORUS / POTASSIUM / SODIUM / TOTAL BILIRUBIN / TOTAL PROTEIN / URIC ACID: tissue Plasma
[1] = 4 mg/kg, 120 h, dose level Low, time 5 day
[2] = 63 mg/kg, 72 h, dose level High, time 3 day
[3] = 63 mg/kg, 120 h, dose level High, time 5 day

## CSc1ccc2c(c1)N(CCC1CCCCN1C)c1ccccc1S2 (centres undefined) [THIORIDAZINE]
[1]
  ABSOLUTE BASOPHIL: 0 CELLS/uL
  ABSOLUTE EOSINOPHIL: 185.33 CELLS/uL
  ABSOLUTE LYMPHOCYTE: 12393.33 CELLS/uL
  ABSOLUTE MONOCYTE: 143.33 CELLS/uL
  ABSOLUTE SEGMENTED NEUTROPHIL: 1078 CELLS/uL
  BASOPHIL: 0%
  EOSINOPHIL: 1.33%
  ERYTHROCYTE COUNT: 6.21 x10E6/uL
  HEMATOCRIT: 39.13%
  HEMOGLOBIN: 14.43 G/DL
  LEUKOCYTE COUNT: 13.8 x10E3/uL
  LYMPHOCYTE: 90%
  MEAN CORPUSCULAR HEMOGLOBIN: 23.27 pg
  MEAN CORPUSCULAR HEMOGLOBIN CONCENTRATION: 36.87 G/DL
  MEAN CORPUSCULAR VOLUME: 63.13 fL
  MONOCYTE: 1%
  NEUTROPHIL: 7.67%
  NUCLEATED RED BLOOD CELLS: 0.33 /100WBC
  PLATELET COUNT: 1375 x10E3/uL
  ALANINE AMINOTRANSFERASE: 42.67 u/L
  ALBUMIN: 4.4 G/DL
  ALKALINE PHOSPHATASE: 474.67 u/L
  ASPARTATE AMINOTRANSFERASE: 94.67 u/L
  BLOOD UREA NITROGEN: 17.67 mg/dL
  CARBON DIOXIDE: 24.33 mmol/L
  CHLORIDE: 103.67 MEQ/L
  CHOLESTEROL: 48.67 mg/dL
  CREATINE PHOSPHOKINASE: 499.33 u/L
  CREATININE: 0.19 mg/dL
  GLUCOSE: 188 mg/dL
  LACTATE DEHYDROGENASE: 405 u/L
  LIPASE: 9.33 u/L
  PHOSPHORUS: 12.77 mg/dL
  POTASSIUM: 5.85 MEQ/L
  SODIUM: 141.6 MEQ/L
  TOTAL BILIRUBIN: 0.1 mg/dL
  TOTAL PROTEIN: 6.63 G/DL
  URIC ACID: 2.07 mg/dL
[2]
  ABSOLUTE BASOPHIL: 0 CELLS/uL
  ABSOLUTE EOSINOPHIL: 50 CELLS/uL
  ABSOLUTE LYMPHOCYTE: 8382 CELLS/uL
  ABSOLUTE MONOCYTE: 59.67 CELLS/uL
  ABSOLUTE SEGMENTED NEUTROPHIL: 575 CELLS/uL
  BASOPHIL: 0%
  EOSINOPHIL: 0.67%
  ERYTHROCYTE COUNT: 5.2 x10E6/uL
  HEMATOCRIT: 32.73%
  HEMOGLOBIN: 12.73 G/DL
  LEUKOCYTE COUNT: 9.07 x10E3/uL
  LYMPHOCYTE: 92.33%
  MEAN CORPUSCULAR HEMOGLOBIN: 24.53 pg
  MEAN CORPUSCULAR HEMOGLOBIN CONCENTRATION: 38.9 G/DL
  MEAN CORPUSCULAR VOLUME: 63.07 fL
  MONOCYTE: 0.67%
  NEUTROPHIL: 6.33%
  NUCLEATED RED BLOOD CELLS: 0 /100WBC
  PLATELET COUNT: 1257.67 x10E3/uL
  ALANINE AMINOTRANSFERASE: 49.33 u/L
  ALBUMIN: 4.2 G/DL
  ALKALINE PHOSPHATASE: 379.33 u/L
  ASPARTATE AMINOTRANSFERASE: 77.67 u/L
  BLOOD UREA NITROGEN: 16 mg/dL
  CARBON DIOXIDE: 28.67 mmol/L
  CHLORIDE: 104.67 MEQ/L
  CHOLESTEROL: 74.33 mg/dL
  CREATINE PHOSPHOKINASE: 301.33 u/L
  CREATININE: 0.2 mg/dL
  GLUCOSE: 164 mg/dL
  LACTATE DEHYDROGENASE: 99.33 u/L
  LIPASE: 9 u/L
  PHOSPHORUS: 10.9 mg/dL
  POTASSIUM: 5.63 MEQ/L
  SODIUM: 146.33 MEQ/L
  TOTAL BILIRUBIN: 0.17 mg/dL
  TOTAL PROTEIN: 6 G/DL
  URIC ACID: 1.13 mg/dL
[3]
  ABSOLUTE BASOPHIL: 0 CELLS/uL
  ABSOLUTE EOSINOPHIL: 0 CELLS/uL
  ABSOLUTE LYMPHOCYTE: 12825 CELLS/uL
  ABSOLUTE MONOCYTE: 117.67 CELLS/uL
  ABSOLUTE SEGMENTED NEUTROPHIL: 1290.67 CELLS/uL
  BASOPHIL: 0%
  EOSINOPHIL: 0%
  ERYTHROCYTE COUNT: 5.78 x10E6/uL
  HEMATOCRIT: 35.33%
  HEMOGLOBIN: 13.37 G/DL
  LEUKOCYTE COUNT: 14.23 x10E3/uL
  LYMPHOCYTE: 90.33%
  MEAN CORPUSCULAR HEMOGLOBIN: 23.13 pg
  MEAN CORPUSCULAR HEMOGLOBIN CONCENTRATION: 37.87 G/DL
  MEAN CORPUSCULAR VOLUME: 61.23 fL
  MONOCYTE: 1%
  NEUTROPHIL: 8.67%
  NUCLEATED RED BLOOD CELLS: 0.33 /100WBC
  PLATELET COUNT: 1309.67 x10E3/uL
  ALANINE AMINOTRANSFERASE: 52.33 u/L
  ALBUMIN: 4 G/DL
  ALKALINE PHOSPHATASE: 520 u/L
  ASPARTATE AMINOTRANSFERASE: 97.33 u/L
  BLOOD UREA NITROGEN: 13.67 mg/dL
  CARBON DIOXIDE: 23.33 mmol/L
  CHLORIDE: 106.33 MEQ/L
  CHOLESTEROL: 55 mg/dL
  CREATINE PHOSPHOKINASE: 913 u/L
  CREATININE: 0.19 mg/dL
  GLUCOSE: 175.33 mg/dL
  LACTATE DEHYDROGENASE: 124.33 u/L
  LIPASE: 8.67 u/L
  PHOSPHORUS: 11.6 mg/dL
  POTASSIUM: 5.22 MEQ/L
  SODIUM: 144.53 MEQ/L
  TOTAL BILIRUBIN: 0.17 mg/dL
  TOTAL PROTEIN: 5.87 G/DL
  URIC ACID: 1.37 mg/dL
